One assay concerns HBEC30KT. Nature of the assay: Cell viability (ATP, Cell Titer Glo, 4 days), HBEC30KT. The assay is classed as cell-based, human. Conditions: Homo sapiens, Tables 3 and 4; read-out: HBEC30KT IC50.
The next assay relates to H1155. The assay is described as follows: Cell viability dose-response, H1155. Type of assay: cell-based. The note with it: Homo sapiens, NCI-H1155; Tables 3 and 4; read-out: IC50 (uM) vs indicated non-small cell lung cancer cell line H1155. As to the method: (§1) FIG. 6A. […] Cell viability is plotted vs. compound concentration. Compound was added to cells plated at 15% confluence in 96-well plates in RPMI-1640 media supplemented with 5% Fetal Bovine Serum and 2 mM L-Glutamine. After 4 days of incubation, ATP levels were measured using Cell Titer Glo (Promega). Data are presented as the average of 2 replicates ±SEM.
(§2) Selectivity may be measured by the half maximal inhibitory concentration (IC50), which, as used herein, is a measure of the effectiveness of a compound in killing cells. This quantitative measure indicates how much of a particular compound is needed to kill a particular cell population by half (e.g., as indicated by the amount of ATP). […] The IC50 can be determined by constructing a dose-response curve. The lower the IC50, the higher the potency, and the greater the difference between IC50 values for different cell lines (e.g., sensitive lines vs. insensitive lines, and sensitive lines vs. normal lines) the greater the selectivity. […]
(§3) With this information, we synthesized and tested a series of small molecules derived in conception from the oxalamide and chromone scaffold including N-acyl ureas, as shown in Tables 6-8. Each compound was tested in a 12-point dose-response study starting at 50 micromolar and decreasing in 3-fold increments to sub-nanomolar concentrations, in duplicate. Additionally, one or more additional cell line was tested in the same way.

The next assay has as its system H1395. Nature of the assay: Cell viability dose-response, H1395. Type of assay: cell-based. The note with it: Homo sapiens, NCI-H1395; Tables 3 and 4; read-out: IC50 (uM) vs indicated non-small cell lung cancer cell line H1395. As to the method:
as §1, §2, §3

The next assay deals with H1819. Nature of the assay: Cell viability dose-response, H1819. The assay is classed as cell-based, human. Conditions: Homo sapiens, NCI-H1819, Tables 3 and 4; read-out: IC50 (uM) vs indicated non-small cell lung cancer cell line H1819. The essentials:
(§4)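 Cells plated at 15% confluence in RPMI-1640 with 5% FBS and 2 mM L-glutamine, treated with compound in a 12-point, 3-fold dilution series from 50 micromolar, in duplicate. ATP measured by Cell Titer Glo after 4 days; IC50 taken from the dose-response curve.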

In another assay the test system is H1993. Nature of the assay: Cell viability dose-response, H1993. Type of assay: cell-based. Conditions: Homo sapiens, NCI-H1993; Tables 3 and 4; read-out: IC50 (uM) vs indicated non-small cell lung cancer cell line H1993. As to the method:
as §1, §2, §3

Another assay has as its system H2009. The assay is described as follows: Cell viability dose-response, H2009. Conditions: Homo sapiens, NCI-H2009; Tables 3 and 4; read-out: IC50 (uM) vs indicated non-small cell lung cancer cell line H2009. The assay is classed as cell-based, human. The essentials: (§5)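 Cells were plated at 15% confluence in RPMI-1640 with 5% FBS and 2 mM L-glutamine, then exposed to compound for 4 days. Viability was read as cellular ATP by CellTiter-Glo luminescence. Values are means of 2 replicates ±SEM, and IC50 comes from the dose-response curve.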

Another assay relates to H2073. Nature of the assay: Cell viability dose-response, H2073. Type of assay: cell-based, human. Conditions: Homo sapiens, NCI-H2073, Tables 3 and 4; read-out: IC50 (uM) vs indicated non-small cell lung cancer cell line H2073. The essentials: as §5
Another assay deals with H2122. The assay is described as follows: Cell viability dose-response, H2122. Type of assay: cell-based, human. Conditions: Homo sapiens, NCI-H2122, Tables 3 and 4; read-out: IC50 (uM) vs indicated non-small cell lung cancer cell line H2122. The gist of the method:
as §4

The next assay deals with HCC366. The assay is described as follows: Cell viability dose-response, HCC366. Type of assay: cell-based. Conditions: Homo sapiens, Tables 3 and 4, read-out: IC50 (uM) vs indicated non-small cell lung cancer cell line HCC366. As to the method:
as §1, §2, §3

In another assay the test system is HCC4017. The assay is described as follows: Cell viability dose-response, HCC4017. The assay is classed as cell-based, human. Conditions: Homo sapiens, HCC4017, Tables 3 and 4; read-out: IC50 (uM) vs indicated non-small cell lung cancer cell line HCC4017. As to the method:
as §1, §2, §3

In a further assay the test system is HCC44. The assay is described as follows: Cell viability dose-response, HCC44. The note with it: Homo sapiens, HCC44, Tables 3 and 4; read-out: IC50 (uM) vs indicated non-small cell lung cancer cell line HCC44. Type of assay: cell-based, human. The essentials: as §5
In another assay the test system is HCC95. The assay is described as follows: Cell viability dose-response, HCC95. Type of assay: cell-based. Conditions: Homo sapiens, Tables 3 and 4, read-out: IC50 (uM) vs indicated non-small cell lung cancer cell line HCC95. As to the method:
as §1, §2, §3

In a further assay the test system is H460. The assay is described as follows: Cell viability dose-response, H460. Type of assay: cell-based. The note with it: Homo sapiens, NCI-H460; Tables 3 and 4; read-out: IC50 (uM) vs indicated non-small cell lung cancer cell line H460. As to the method:
as §1, §2, §3

Consider `Cc1cc(C)nc(SCC(=O)Nc2nc3ccccc3s2)n1` [SW053831], for which the half-inhibitory concentration (IC50) with HBEC30KT was found to be 60 µM; in the assay with H1155, 43 µM; with H1395 it was 65 µM; in the assay with H1819, 63 µM; in the assay with H1993 it was 29 µM; with H2009 it was 104 µM. In addition, the concentration for half-maximal inhibition (IC50) with H2073 was found to be 0.85 µM; in the assay with H2122, 47 µM; in the assay with HCC366 it was 80 µM; in the assay on HCC4017, 98 µM; with HCC44, 33 µM; with HCC95 it was 85 µM.
In the case of `O=C(Nc1nc2ccccc2s1)c1ccc(-c2ccccc2)cc1` [SW001811], the 50% inhibitory concentration (IC50) with HBEC30KT stood at 348 µM; with H1155, 125 µM; in the assay on H1395, 185 µM; in the assay with H1819 it was 59 µM; with H1993, 85 µM; with H2009 it was 125 µM. The 50% inhibitory concentration (IC50) with H2122 is 0.7 µM; in the assay on H460, 450 µM; in the assay on HCC366, 220 µM; in the assay on HCC4017, 120 µM; with HCC44, 165 µM; in the assay on HCC95, 58 µM.
For `O=C(Nc1nnc(C2CCCCC2)s1)c1sc2ccccc2c1Cl` [SW173997], the IC50 was determined as 23.8 µM in the assay on H1155; 41.3 µM in the assay with H1395; 48.5 µM in the assay on H1819; 16.9 µM in the assay with H1993; 21.5 µM with H2009; 11.4 µM in the assay on H2073. Besides, the IC50 in the assay on H2122 was determined as 0.27 µM; in the assay with H460, 44.5 µM; in the assay on HCC366, 40.9 µM; in the assay on HCC4017, 24 µM; with HCC44 it was 23.1 µM; in the assay on HCC95, 23.8 µM.
In the case of `O=C(c1ccc(O)cc1)c1ccc(NC(=O)c2sc3ccccc3c2Cl)cc1` [SW202856-1], the IC50 with HBEC30KT is 6.08 µM; in the assay on H1155 it was 20.4 µM; in the assay with H1819 it was 40.2 µM; with H1993, 13.6 µM; in the assay with H2009, 4.76 µM; with H2073, 48.4 µM. Further, the half-maximal inhibitory concentration (IC50) with H2122 amounted to 33.8 µM; in the assay on H460, 44.5 µM; in the assay with HCC366, 40.6 µM; in the assay on HCC4017, 13.3 µM; in the assay on HCC44 it was 1.06 µM; in the assay on HCC95, 12.8 µM.
Take `O=C(Nc1nc2ccccc2s1)c1ccc([N+](=O)[O-])cc1` [SW003992]: the IC50 was 1630 µM in the assay on HBEC30KT; 2870 µM in the assay with H1155; 1580 µM in the assay with H1395; 358 µM in the assay on H1819; 524 µM in the assay on H1993; 0.65 µM in the assay on H2073. Moreover, the IC50 turned out to be 0.14 µM in the assay on H2122; 1040 µM in the assay with HCC366; 1440 µM in the assay with HCC4017; 3500 µM in the assay on HCC44; 2270 µM in the assay with HCC95.
Consider `O=C(Nc1nc2c(s1)CCCC2)c1ccccc1Oc1ccccc1` [SW045964], for which the concentration for half-maximal inhibition (IC50) turned out to be 321 µM with HBEC30KT; 389 µM in the assay on H1155; 620 µM with H1395; 143 µM with H1819; 55.9 µM in the assay on H1993; 55 µM with H2009. Further, the IC50 amounted to 3.2 µM in the assay on H2073; 1 µM in the assay with H2122; 149 µM in the assay on HCC366; 407 µM in the assay with HCC4017; 489 µM in the assay on HCC44; 140 µM in the assay on HCC95.

For the origin of these results see patent US9789096B2, “Methods and compositions for selective and targeted cancer therapy” (Board of Regents of the University of Texas System, priority 2013, dated 2017).
